One assay deals with SREBP-2 (Homo sapiens (Human), UniProt Q12772). Description: In vitro assay SREBP-2: PathHunter U2OS SREBP-2 Nuclear Translocation Cell Line, U18666A-stimulated. It counts as cell-based.
Another assay addresses LXRβ (Homo sapiens (Human), UniProt P55055). Description: In vitro assay LXRβ: PathHunter NHR CHO cells, LXRβ / Steroid Receptor Co-activator Peptide enzyme fragment complementation. It counts as cell-based. An outline of the steps: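 Enzyme fragment complementation read-out: CHO cells stably expressing ProLink-tagged full-length human LXRβ plus nuclear enzyme acceptor–SRCP fusion, seeded and held overnight at 37° C. Medium with charcoal-dextran filtered serum; final vehicle 1%. Chemiluminescence measured after signal generation.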

Where [1] appears, read: PathHunter U2OS SREBP-2 nuclear translocation cells, U18666A 10 μM, overnight (16 hours).
The mark [2] stands for this setting: PathHunter NHR CHO cells, full-length human LXRβ and SRCP, chemiluminescent signal, read-out: LXRβ PPI.

Where two headings read alike, the source gives them in different places. Some results are limits rather than exact numbers.

Chain of LXRβ (P55055 whole entry, the tested form may be a part): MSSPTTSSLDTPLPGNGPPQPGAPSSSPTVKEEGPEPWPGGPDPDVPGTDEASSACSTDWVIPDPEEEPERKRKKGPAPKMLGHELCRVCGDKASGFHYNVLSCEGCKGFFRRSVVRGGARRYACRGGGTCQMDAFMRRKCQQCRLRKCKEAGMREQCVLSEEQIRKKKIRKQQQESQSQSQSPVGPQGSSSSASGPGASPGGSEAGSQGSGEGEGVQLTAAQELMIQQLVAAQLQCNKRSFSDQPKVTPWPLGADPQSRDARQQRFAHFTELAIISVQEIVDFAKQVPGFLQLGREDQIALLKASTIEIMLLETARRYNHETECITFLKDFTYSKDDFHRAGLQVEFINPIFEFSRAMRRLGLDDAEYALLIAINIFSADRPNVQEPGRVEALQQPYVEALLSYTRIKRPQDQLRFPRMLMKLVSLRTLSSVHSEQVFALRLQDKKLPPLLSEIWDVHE

By IC50 is commonly meant the midpoint of a concentration-inhibition curve. A higher IC50 goes with a need for much substance. In turn, `C[C@H](CCC(=O)N1CCN(c2cccnn2)CC1)[C@H]1CC[C@H]2[C@@H]3CC=C4C[C@@H](O)CC[C@]4(C)[C@H]3CC[C@]12C` [Example 303, (4R)-4-[(1R,3aS,3bS,7S,9aR,9bS,11aR)-7-hydroxy-9a,11a-dimethyl-1H,2H,3H,3aH,3bH,4H,6H,7H,8H,9H,9aH,9bH,10H,11H,11aH-cyclopenta[a]phenanthren-1-yl]-1-[4-(pyridazin-3-yl)piperazin-1-yl]pentan-1-one] came in with an IC50 at SREBP-2 (setting [1]) below 250 nM. Besides, the EC50 on LXRβ (setting [2]) was above 10000 nM.

As for `C[C@H](CCC(=O)N1CCN(c2cnccn2)CC1)[C@H]1CC[C@H]2[C@@H]3CC=C4C[C@@H](O)CC[C@]4(C)[C@H]3CC[C@]12C` [Example 304, (R)-4-((3S,8S,9S,10R,13R,14S,17R)-3-hydroxy-10,13-dimethyl-2,3,4,7,8,9,10,11,12,13,14,15,16,17-tetradecahydro-1H-cyclopenta[a]phenanthren-17-yl)-1-(4-(pyrazin-2-yl)piperazin-1-yl)pentan-1-one], the half-inhibitory concentration (IC50) at SREBP-2 (setting [1]) is below 250 nM. The EC50 at LXRβ (setting [2]) was above 10000 nM.

On SREBP-2 (setting [1]), `C[C@H](CCC(=O)N1CCN(C(=O)c2cn(C)nn2)CC1)[C@H]1CC[C@H]2[C@@H]3CC=C4C[C@@H](O)CC[C@]4(C)[C@H]3CC[C@]12C` [Example 308, (R)-4-((3S,8S,9S,10R,13R,14S,17R)-3-hydroxy-10,13-dimethyl-2,3,4,7,8,9,10,11,12,13,14,15,16,17-tetradecahydro-1H-cyclopenta[a]phenanthren-17-yl)-1-(4-(1-methyl-1H-1,2,3-triazole-4-carbonyl)piperazin-1-yl)pentan-1-one] displayed an IC50 below 250 nM. Besides, the EC50 at LXRβ (setting [2]) is above 10000 nM.

Turning to `C[C@H](CCC(=O)N1CCN(C(=O)c2cnn(C)c2)CC1)[C@H]1CC[C@H]2[C@@H]3CC=C4C[C@@H](O)CC[C@]4(C)[C@H]3CC[C@]12C` [Example 309, (4R)-4-[(1R,3aS,3bS,7S,9aR,9bS,11aR)-7-hydroxy-9a,11a-dimethyl-1H,2H,3H,3aH,3bH,4H,6H,7H,8H,9H,9aH,9bH,10H,11H,11aH-cyclopenta[a]phenanthren-1-yl]-1-[4-(1-methyl-1H-pyrazole-4-carbonyl)piperazin-1-yl]pentan-1-one], on SREBP-2 (setting [1]), the IC50 was below 250 nM. Also, the EC50 on LXRβ (setting [2]) was above 10000 nM.

At SREBP-2 (setting [1]), `C[C@H](CCC(=O)N1CCN(C(=O)c2cn[nH]c2)CC1)[C@H]1CC[C@H]2[C@@H]3CC=C4C[C@@H](O)CC[C@]4(C)[C@H]3CC[C@]12C` [Example 310, (R)-1-(4-(1H-pyrazole-4-carbonyl)piperazin-1-yl)-4-((3S,8S,9S,10R,13R,14S,17R)-3-hydroxy-10,13-dimethyl-2,3,4,7,8,9,10,11,12,13,14,15,16,17-tetradecahydro-1H-cyclopenta[a]phenanthren-17-yl)pentan-1-one] gave an IC50 below 250 nM. Moreover, the EC50 at LXRβ (setting [2]) was above 10000 nM.

On to `C[C@H](CCC(=O)N1CCN(C(=O)c2ccns2)CC1)[C@H]1CC[C@H]2[C@@H]3CC=C4C[C@@H](O)CC[C@]4(C)[C@H]3CC[C@]12C` [Example 311, (R)-4-((3S,8S,9S,10R,13R,14S,17R)-3-hydroxy-10,13-dimethyl-2,3,4,7,8,9,10,11,12,13,14,15,16,17-tetradecahydro-1H-cyclopenta[a]phenanthren-17-yl)-1-(4-(isothiazole-5-carbonyl)piperazin-1-yl)pentan-1-one], for which the IC50 at SREBP-2 (setting [1]) is below 250 nM. At LXRβ (setting [2]), the EC50 is above 10000 nM.

On to `C[C@H](CCC(=O)N1CCN(C(=O)c2cccnc2)CC1)[C@H]1CC[C@H]2[C@@H]3CC=C4C[C@@H](O)CC[C@]4(C)[C@H]3CC[C@]12C` [Example 313, (4R)-4-[(1R,3aS,3bS,7S,9aR,9bS,11aR)-7-hydroxy-9a,11a-dimethyl-1H,2H,3H,3aH,3bH,4H,6H,7H,8H,9H,9aH,9bH,10H,11H,11aH-cyclopenta[a]phenanthren-1-yl]-1-[4-(pyridine-3-carbonyl)piperazin-1-yl]pentan-1-one], for which the concentration for half-maximal inhibition (IC50) against SREBP-2 was below 250 nM. The compound also gave an EC50 at LXRβ above 10000 nM.

Compound `CC(C)N1CCN(C(=O)CC[C@@H](C)[C@H]2CC[C@H]3[C@@H]4CC=C5C[C@@H](O)CC[C@]5(C)[C@H]4CC[C@]23C)CC1` [Example 316, (R)-4-((3S,8S,9S,10R,13R,14S,17R)-3-hydroxy-10,13-dimethyl-2,3,4,7,8,9,10,11,12,13,14,15,16,17-tetradecahydro-1H-cyclopenta[a]phenanthren-17-yl)-1-(4-isopropylpiperazin-1-yl) pentan-1-one] yielded an IC50 on SREBP-2 (setting [1]) below 250 nM. For the same compound, at LXRβ (setting [2]), the EC50 is above 10000 nM.

Take `CC(=O)N1CCCN(C(=O)CC[C@@H](C)[C@H]2CC[C@H]3[C@@H]4CC=C5C[C@@H](O)CC[C@]5(C)[C@H]4CC[C@]23C)CC1` [Example 317, (R)-1-(4-acetyl-1,4-diazepan-1-yl)-4-((3S,8S,9S,10R,13R,14S,17R)-3-hydroxy-10,13-dimethyl-2,3,4,7,8,9,10,11,12,13,14,15,16,17-tetradecahydro-1H-cyclopenta[a]phenanthren-17-yl)pentan-1-one]: the IC50 on SREBP-2 (setting [1]) was below 250 nM. In addition, the EC50 at LXRβ (setting [2]) was above 10000 nM.

Compound `CC(=O)N1C[C@@H]2CN(C(=O)CC[C@@H](C)[C@H]3CC[C@H]4[C@@H]5CC=C6C[C@@H](O)CC[C@]6(C)[C@H]5CC[C@]34C)C[C@@H]2C1` [Example 318, (4R)-1-[(3aR,6aS)-5-acetyl-octahydropyrrolo[3,4-c]pyrrol-2-yl]-4-[(1R,3aS,3bS,7S,9aR,9bS,11aR)-7-hydroxy-9a,11a-dimethyl-1H,2H,3H,3aH,3bH,4H,6H,7H,8H,9H,9aH,9bH,10H,11H,11aH-cyclopenta[a]phenanthren-1-yl]pentan-1-one] registered an IC50 against SREBP-2 (setting [1]) of 250 to 1000 nM. For the same compound, the EC50 on LXRβ (setting [2]) is above 10000 nM.

As to `CC(=O)N(C)C1CCN(C(=O)CC[C@@H](C)[C@H]2CC[C@H]3[C@@H]4CC=C5C[C@@H](O)CC[C@]5(C)[C@H]4CC[C@]23C)CC1` [Example 319, N-(1-((R)-4-((3S,8S,9S,10R,13R,14S,17R)-3-hydroxy-10,13-dimethyl-2,3,4,7,8,9,10,11,12,13,14,15,16,17-tetradecahydro-1H-cyclopenta[a]phenanthren-17-yl)pentanoyl)piperidin-4-yl)-N-methylacetamide], at SREBP-2 (setting [1]), the IC50 was below 250 nM. Also, the EC50 on LXRβ (setting [2]) was above 10000 nM.

With `CC(=O)NC1CCN(C(=O)CC[C@@H](C)[C@H]2CC[C@H]3[C@@H]4CC=C5C[C@@H](O)CC[C@]5(C)[C@H]4CC[C@]23C)CC1` [Example 320, N-(1-((R)-4-((3S,8S,9S,10R,13R,14S,17R)-3-hydroxy-10,13-dimethyl-2,3,4,7,8,9,10,11,12,13,14,15,16,17-tetradecahydro-1H-cyclopenta[a]phenanthren-17-yl)pentanoyl)piperidin-4-yl)acetamide], the half-inhibitory concentration (IC50) at SREBP-2 (setting [1]) is below 250 nM. In addition, the EC50 on LXRβ (setting [2]) was above 10000 nM.

As for `CC(=O)N(C)[C@H]1CCN(C(=O)CC[C@@H](C)[C@H]2CC[C@H]3[C@@H]4CC=C5C[C@@H](O)CC[C@]5(C)[C@H]4CC[C@]23C)C1` [Example 321, N—((S)-1-((R)-4-((3S,8S,9S,10R,13R,14S,17R)-3-hydroxy-10,13-dimethyl-2,3,4,7,8,9,10,11,12,13,14,15,16,17-tetradecahydro-1H-cyclopenta[a]phenanthren-17-yl)pentanoyl)pyrrolidin-3-yl)-N-methylacetamide], at SREBP-2 (setting [1]), the IC50 was below 250 nM. Moreover, the EC50 at LXRβ (setting [2]) is above 10000 nM.

As to `CC(=O)N[C@H]1CCN(C(=O)CC[C@@H](C)[C@H]2CC[C@H]3[C@@H]4CC=C5C[C@@H](O)CC[C@]5(C)[C@H]4CC[C@]23C)C1` [Example 322, N—((S)-1-((R)-4-((3S,8S,9S,10R,13R,14S,17R)-3-hydroxy-10,13-dimethyl-2,3,4,7,8,9,10,11,12,13,14,15,16,17-tetradecahydro-1H-cyclopenta[a]phenanthren-17-yl)pentanoyl)pyrrolidin-3-yl)acetamide], the IC50 on SREBP-2 (setting [1]) was below 250 nM. Besides, the EC50 on LXRβ (setting [2]) was above 10000 nM.

Compound `CC(=O)N(C)[C@@H]1CCN(C(=O)CC[C@@H](C)[C@H]2CC[C@H]3[C@@H]4CC=C5C[C@@H](O)CC[C@]5(C)[C@H]4CC[C@]23C)C1` [Example 323, N—((R)-1-((R)-4-((3S,8S,9S,10R,13R,14S,17R)-3-hydroxy-10,13-dimethyl-2,3,4,7,8,9,10,11,12,13,14,15,16,17-tetradecahydro-1H-cyclopenta[a]phenanthren-17-yl)pentanoyl)pyrrolidin-3-yl)-N-methylacetamide] displayed an IC50 on SREBP-2 (setting [1]) of 250 to 1000 nM. Further, on LXRβ (setting [2]), the EC50 is above 10000 nM.

For `CC(=O)N[C@@H]1CCN(C(=O)CC[C@@H](C)[C@H]2CC[C@H]3[C@@H]4CC=C5C[C@@H](O)CC[C@]5(C)[C@H]4CC[C@]23C)C1` [Example 324, N-[(3R)-1-[(4R)-4-[(1R,3aS,3bS,7S,9aR,9bS,11aR)-7-hydroxy-9a,11a-dimethyl-1H,2H,3H,3aH,3bH,4H,6H,7H,8H,9H,9aH,9bH,10H,11H,11aH-cyclopenta[a]phenanthren-1-yl]pentanoyl]pyrrolidin-3-yl]acetamide], the IC50 against SREBP-2 (setting [1]) lay in the range of 250 to 1000 nM. The EC50 on LXRβ (setting [2]) is above 10000 nM.

Take `C#CC1(OC(C)C)CCN(C(=O)CC[C@@H](C)[C@H]2CC[C@H]3[C@@H]4CC=C5C[C@@H](O)CC[C@]5(C)[C@H]4CC[C@]23C)CC1` [Example 329, [(1R,3aS,3bS,7S,9aR,9bS,11aR)-7-hydroxy-9a,11a-dimethyl-1H,2H,3H,3aH,3bH,4H,6H,7H,8H,9H,9aH,9bH,10H,11H,11aH-cyclopenta[a]phenanthren-1-yl]-1-[4-ethynyl-4-(propan-2-yloxy)piperidin-1-yl]pentan-1-one]: the IC50 at SREBP-2 (setting [1]) is below 250 nM. For the same compound, at LXRβ (setting [2]), the EC50 lay within 1000 to 10000 nM.

These data come from US20230340011A1 (Asteroid Therapeutics, priority 2022, published 2023).
